Measured values reported in the OligoGym collection.
HELM strings list units from the 5' end as sugar, base in round brackets, then linkage (d deoxyribose, r ribose, m 2'-O-methyl, p phosphodiester). Strings are as the collection lists them; they lack the last nucleoside at the 3' end of the tested compound. [moe] = 2'-O-(2-methoxyethyl) (MOE); [sp] = phosphorothioate linkage; [m5C] = 5-methylcytosine

Molecular target: APP
Assay: mouse, dose not given
Settings: ASO

Substance | 3 h FOB score
RNA1{[moe](G)[sp].[moe](T)p.[moe](G)p.[moe]([m5C])p.[moe](T)[sp].d(T)[sp].d(A)[sp].d(T)[sp].d(A)[sp].d(A)[sp].d([m5C])[sp].d(T)[sp].d([m5C])[sp].d(T)[sp].d([m5C])[sp].[moe](A)p.[moe](T)p.[moe](A)[sp].[moe]([m5C])}$$$$ (last 3' nucleoside missing) | 1 score 0-7
RNA1{[moe](G)[sp].[moe]([m5C])p.[moe](A)p.[moe](T)p.[moe]([m5C])[sp].d(A)[sp].d(G)[sp].d(G)[sp].d([m5C])[sp].d(T)[sp].d(A)[sp].d(A)[sp].d([m5C])[sp].d(A)[sp].d(A)[sp].[moe](G)p.[moe](T)p.[moe](T)[sp].[moe]([m5C])}$$$$ (last 3' nucleoside missing) | 4 score 0-7
RNA1{[moe](T)[sp].[moe](A)p.[moe](T)p.[moe](G)p.[moe](A)[sp].d([m5C])[sp].d(A)[sp].d(A)[sp].d([m5C])[sp].d(A)[sp].d([m5C])[sp].d([m5C])[sp].d(G)[sp].d([m5C])[sp].d([m5C])[sp].[moe]([m5C])p.[moe](A)p.[moe]([m5C])[sp].[moe]([m5C])}$$$$ (last 3' nucleoside missing) | 4 score 0-7
RNA1{[moe](A)[sp].[moe]([m5C])p.[moe](T)p.[moe](G)p.[moe](A)[sp].d(T)[sp].d(T)[sp].d(A)[sp].d(T)[sp].d([m5C])[sp].d(A)[sp].d(A)[sp].d(A)[sp].d(T)[sp].d(T)[sp].[moe]([m5C])p.[moe]([m5C])p.[moe](G)[sp].[moe](G)}$$$$ (last 3' nucleoside missing) | 0.25 score 0-7
RNA1{[moe](G)[sp].[moe](A)p.[moe](G)p.[moe](A)p.[moe](T)[sp].d(A)[sp].d([m5C])[sp].d(T)[sp].d(T)[sp].d(G)[sp].d(T)[sp].d([m5C])[sp].d(A)[sp].d(A)[sp].d([m5C])[sp].[moe](G)p.[moe](G)p.[moe]([m5C])[sp].[moe](A)}$$$$ (last 3' nucleoside missing) | 1.67 score 0-7
RNA1{[moe](T)[sp].[moe]([m5C])p.[moe](A)p.[moe](T)p.[moe]([m5C])[sp].d(A)[sp].d([m5C])[sp].d([m5C])[sp].d(A)[sp].d(T)[sp].d(A)[sp].d([m5C])[sp].d(A)[sp].d(T)[sp].d(A)[sp].[moe](G)p.[moe]([m5C])p.[moe](A)[sp].[moe](G)}$$$$ (last 3' nucleoside missing) | 0.67 score 0-7
RNA1{[moe](T)[sp].[moe](G)p.[moe](G)p.[moe](T)p.[moe]([m5C])[sp].d(T)[sp].d(A)[sp].d(T)[sp].d(A)[sp].d(T)[sp].d(A)[sp].d(T)[sp].d(T)[sp].d(T)[sp].d([m5C])[sp].[moe](A)p.[moe](G)p.[moe](G)[sp].[moe]([m5C])}$$$$ (last 3' nucleoside missing) | 0 score 0-7
RNA1{[moe](A)[sp].[moe](T)p.[moe](T)p.[moe]([m5C])p.[moe](T)[sp].d(G)[sp].d(G)[sp].d(A)[sp].d([m5C])[sp].d(A)[sp].d(T)[sp].d(T)[sp].d([m5C])[sp].d(A)[sp].d(T)[sp].[moe](G)p.[moe](T)p.[moe](G)[sp].[moe]([m5C])}$$$$ (last 3' nucleoside missing) | 1 score 0-7
RNA1{[moe](T)[sp].[moe]([m5C])p.[moe]([m5C])p.[moe](A)p.[moe](A)[sp].d(A)[sp].d(G)[sp].d(A)[sp].d(T)[sp].d(T)[sp].d([m5C])[sp].d([m5C])[sp].d(A)[sp].d([m5C])[sp].d(T)[sp].[moe](T)p.[moe](T)p.[moe]([m5C])[sp].[moe](T)}$$$$ (last 3' nucleoside missing) | 0.5 score 0-7
RNA1{[moe](T)[sp].[moe](T)p.[moe]([m5C])p.[moe]([m5C])p.[moe](A)[sp].d(A)[sp].d(A)[sp].d(G)[sp].d(A)[sp].d(T)[sp].d(T)[sp].d([m5C])[sp].d([m5C])[sp].d(A)[sp].d([m5C])[sp].[moe](T)p.[moe](T)p.[moe](T)[sp].[moe]([m5C])}$$$$ (last 3' nucleoside missing) | 0 score 0-7
RNA1{[moe](T)[sp].[moe]([m5C])p.[moe](T)p.[moe](T)p.[moe]([m5C])[sp].d(T)[sp].d(T)[sp].d([m5C])[sp].d([m5C])[sp].d(A)[sp].d([m5C])[sp].d([m5C])[sp].d(T)[sp].d([m5C])[sp].d(A)[sp].[moe](G)p.[moe]([m5C])p.[moe]([m5C])[sp].[moe](A)}$$$$ (last 3' nucleoside missing) | 0.5 score 0-7
RNA1{[moe](T)[sp].[moe](T)p.[moe](G)p.[moe](A)p.[moe](T)[sp].d(G)[sp].d([m5C])[sp].d(A)[sp].d([m5C])[sp].d(A)[sp].d(T)[sp].d(A)[sp].d(T)[sp].d([m5C])[sp].d([m5C])[sp].[moe](A)p.[moe](G)p.[moe](G)[sp].[moe]([m5C])}$$$$ (last 3' nucleoside missing) | 2 score 0-7
RNA1{[moe](T)[sp].[moe]([m5C])p.[moe](T)p.[moe](T)p.[moe]([m5C])[sp].d([m5C])[sp].d([m5C])[sp].d(A)[sp].d([m5C])[sp].d(A)[sp].d(T)[sp].d(T)[sp].d(A)[sp].d(T)[sp].d(T)[sp].[moe]([m5C])p.[moe](T)p.[moe](A)[sp].[moe](T)}$$$$ (last 3' nucleoside missing) | 0 score 0-7
RNA1{[moe](G)[sp].[moe]([m5C])p.[moe]([m5C])p.[moe](A)p.[moe](T)[sp].d(A)[sp].d(T)[sp].d(T)[sp].d(G)[sp].d(T)[sp].d([m5C])[sp].d(A)[sp].d(T)[sp].d(T)[sp].d(T)[sp].[moe](T)p.[moe](A)p.[moe]([m5C])[sp].[moe](A)}$$$$ (last 3' nucleoside missing) | 1.33 score 0-7
RNA1{[moe]([m5C])[sp].[moe](G)p.[moe](G)p.[moe](A)p.[moe]([m5C])[sp].d(T)[sp].d(T)[sp].d(T)[sp].d(T)[sp].d(T)[sp].d(T)[sp].d([m5C])[sp].d(T)[sp].d(T)[sp].d([m5C])[sp].[moe](T)p.[moe](T)p.[moe](G)[sp].[moe]([m5C])}$$$$ (last 3' nucleoside missing) | 0 score 0-7
RNA1{[moe](T)[sp].[moe](A)p.[moe](G)p.[moe](G)p.[moe](A)[sp].d(A)[sp].d([m5C])[sp].d(T)[sp].d([m5C])[sp].d(G)[sp].d(A)[sp].d(A)[sp].d([m5C])[sp].d([m5C])[sp].d(A)[sp].[moe]([m5C])p.[moe]([m5C])p.[moe](T)[sp].[moe]([m5C])}$$$$ (last 3' nucleoside missing) | 0.5 score 0-7
RNA1{[moe](T)[sp].[moe]([m5C])p.[moe](A)p.[moe](G)p.[moe]([m5C])[sp].d([m5C])[sp].d([m5C])[sp].d([m5C])[sp].d(A)[sp].d(A)[sp].d(A)[sp].d(A)[sp].d(G)[sp].d(A)[sp].d(A)[sp].[moe](T)p.[moe](G)p.[moe]([m5C])[sp].[moe]([m5C])}$$$$ (last 3' nucleoside missing) | 0 score 0-7
RNA1{[moe](G)[sp].[moe](A)p.[moe]([m5C])p.[moe](A)p.[moe]([m5C])[sp].d(T)[sp].d(T)[sp].d(T)[sp].d(T)[sp].d(A)[sp].d(T)[sp].d([m5C])[sp].d(T)[sp].d(T)[sp].d(G)[sp].[moe]([m5C])p.[moe](A)p.[moe]([m5C])[sp].[moe](T)}$$$$ (last 3' nucleoside missing) | 2.33 score 0-7
RNA1{[moe]([m5C])[sp].[moe](T)p.[moe]([m5C])p.[moe]([m5C])p.[moe](A)p.[moe](A)[sp].d(T)[sp].d(T)[sp].d(T)[sp].d(T)[sp].d(A)[sp].d(A)[sp].d([m5C])[sp].d(T)[sp].d(T)[sp].d(G)[sp].[moe]([m5C])p.[moe](A)[sp].[moe]([m5C])}$$$$ (last 3' nucleoside missing) | 0 score 0-7
RNA1{[moe]([m5C])[sp].[moe]([m5C])p.[moe](T)p.[moe](T)p.[moe]([m5C])[sp].d(T)[sp].d(T)[sp].d(A)[sp].d([m5C])[sp].d(A)[sp].d(A)[sp].d(T)[sp].d(T)[sp].d(A)[sp].d(T)[sp].[moe](G)p.[moe]([m5C])p.[moe](T)[sp].[moe]([m5C])}$$$$ (last 3' nucleoside missing) | 1 score 0-7
RNA1{[moe]([m5C])[sp].[moe]([m5C])p.[moe](T)p.[moe](T)p.[moe](G)[sp].d([m5C])[sp].d(T)[sp].d(A)[sp].d(T)[sp].d(T)[sp].d([m5C])[sp].d(A)[sp].d(T)[sp].d(T)[sp].d(T)[sp].[moe](T)p.[moe](T)p.[moe]([m5C])[sp].[moe](A)}$$$$ (last 3' nucleoside missing) | 0 score 0-7
RNA1{[moe](G)[sp].[moe](T)p.[moe](G)p.[moe](A)p.[moe](T)[sp].d(T)[sp].d(T)[sp].d([m5C])[sp].d(A)[sp].d([m5C])[sp].d(T)[sp].d(A)[sp].d(A)[sp].d([m5C])[sp].d([m5C])[sp].[moe](G)p.[moe](G)p.[moe]([m5C])[sp].[moe](A)}$$$$ (last 3' nucleoside missing) | 2 score 0-7
RNA1{[moe](G)[sp].[moe](G)p.[moe](T)p.[moe](T)p.[moe](T)[sp].d(A)[sp].d([m5C])[sp].d([m5C])[sp].d(T)[sp].d(T)[sp].d(T)[sp].d(A)[sp].d(A)[sp].d([m5C])[sp].d(A)[sp].[moe](T)p.[moe](T)p.[moe]([m5C])[sp].[moe]([m5C])}$$$$ (last 3' nucleoside missing) | 0.25 score 0-7
RNA1{[moe](T)[sp].[moe](G)p.[moe](G)p.[moe](T)p.[moe](T)[sp].d(T)[sp].d(A)[sp].d([m5C])[sp].d([m5C])[sp].d(T)[sp].d(T)[sp].d(T)[sp].d(A)[sp].d(A)[sp].d([m5C])[sp].[moe](A)p.[moe](T)p.[moe](T)[sp].[moe]([m5C])}$$$$ (last 3' nucleoside missing) | 0 score 0-7
RNA1{[moe](G)[sp].[moe]([m5C])p.[moe](T)p.[moe]([m5C])p.[moe](A)[sp].d(G)[sp].d(A)[sp].d(G)[sp].d([m5C])[sp].d([m5C])[sp].d(A)[sp].d(G)[sp].d(G)[sp].d([m5C])[sp].d(G)[sp].[moe](A)p.[moe](G)p.[moe](T)[sp].[moe]([m5C])}$$$$ (last 3' nucleoside missing) | 3 score 0-7
